Results on seven compounds are retold here after PubChem BioAssay (NCI).

The structures appear in SMILES notation. “And” between values parts separate entries of the source, which are not always exact repeats. Identical values can stand only once.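 Following 48 hours of exposure in 96-well plates, responses at five concentrations were used to interpolate endpoints linearly. GI50 = concentration required for 50% inhibition of growth. At the TGI there is no net growth.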

Test systems include CCRF-CEM leukemia; UO-31 renal; M14 melanoma; MDA-MB-435; U251 CNS; TK-10 renal; MALME-3M melanoma; BT-549 breast; NCI-H522 lung; UACC-257 melanoma.
What all share (assay): growth of human tumour cells (NCI), 48 h

Consider `O=C(O)c1ccc2c3c(ncnc13)-c1ccccc1C2=O`, for which the GI50 is over 84.6 µM with CCRF-CEM leukemia; 15.8 µM with UO-31 renal; 1.35 µM with M14 melanoma; 1.72 µM in the assay on MDA-MB-435; 4.08 µM in the assay with U251 CNS; 21.9 µM in the assay with TK-10 renal. In addition, the GI50 in the assay with MALME-3M melanoma is 0.517 µM; in the assay with BT-549 breast, 2.51 µM; in the assay on NCI-H522 lung, 13.8 µM; in the assay with UACC-257 melanoma, 8.6 µM. The TGI with CCRF-CEM leukemia is over 100 µM; in the assay with UO-31 renal, over 100 µM; in the assay on M14 melanoma, 3.05 µM; in the assay on MDA-MB-435 it was 3.59 µM; with U251 CNS, over 100 µM; in the assay with TK-10 renal, over 100 µM. Further, the TGI in the assay on MALME-3M melanoma was 1.58 µM; with BT-549 breast, over 29.9 µM; with NCI-H522 lung, over 100 µM; in the assay with UACC-257 melanoma it was over 100 µM.

`O=C(O)c1ccc([S-])cc1.[Au+].c1ccc(CN2[CH-]N(Cc3ccccc3)C(c3ccccc3)=C2c2ccccc2)cc1`: the GI50 with CCRF-CEM leukemia was 0.356 µM; in the assay on UO-31 renal, 0.311 µM; in the assay on M14 melanoma, 0.385 µM; in the assay with MDA-MB-435, 0.417 µM; in the assay on U251 CNS, 0.321 µM; with TK-10 renal it was 0.613 µM. For the same compound, the GI50 is 0.249 µM in the assay on MALME-3M melanoma, 0.318 µM with BT-549 breast, 0.285 µM in the assay on NCI-H522 lung and 0.283 µM in the assay with UACC-257 melanoma. In addition, the TGI turned out to be 2.72 µM in the assay on CCRF-CEM leukemia; 1.27 µM in the assay with UO-31 renal; 1.61 µM in the assay with M14 melanoma; 1.46 µM in the assay with MDA-MB-435; 1.36 µM with U251 CNS; 1.98 µM in the assay on TK-10 renal. Also, the TGI was found to be 0.797 µM in the assay on MALME-3M melanoma, 1.42 µM in the assay with BT-549 breast, 1.2 µM in the assay with NCI-H522 lung and 1.2 µM with UACC-257 melanoma.

On to `COc1ccc2c3c(c4ccccc4cc13)C(=O)N(CCN(C)CCN)C2=O`, for which the GI50 is 0.021 µM in the assay on CCRF-CEM leukemia; 0.065 µM in the assay on UO-31 renal; 0.0599 µM in the assay with M14 melanoma; 0.343 µM in the assay on MDA-MB-435; 0.0776 µM in the assay with U251 CNS; 0.13 µM in the assay with TK-10 renal. In addition, the GI50 in the assay with MALME-3M melanoma is 0.0799 µM; with BT-549 breast, 0.329 µM; in the assay on NCI-H522 lung it was 0.0742 µM; in the assay on UACC-257 melanoma, 0.483 µM. Further, the TGI in the assay on CCRF-CEM leukemia amounted to 0.22 µM; in the assay with UO-31 renal, 1.35 µM; with M14 melanoma it was 1.32 µM; with MDA-MB-435, 1.71 µM; with U251 CNS, 1.21 µM; in the assay on TK-10 renal, 1.31 µM. The TGI with MALME-3M melanoma came out at 1.27 µM; in the assay with BT-549 breast, 1.84 µM; in the assay on NCI-H522 lung it was 1.23 µM; in the assay with UACC-257 melanoma it was 17.4 µM.

Regarding `c1ccc(Nn2c(CCCCCCCCc3nnc(COc4ccccc4)n3Nc3ccccc3)nnc2COc2ccccc2)cc1`, the GI50 in the assay with CCRF-CEM leukemia was 2.91 µM; in the assay with UO-31 renal, 5.27 µM and 8.49 µM; in the assay with M14 melanoma it was 6.24 µM and 4.23 µM; in the assay on MDA-MB-435 it was 5.34 µM and 11.9 µM; in the assay on U251 CNS, 39.6 µM and 144 µM; in the assay with TK-10 renal it was 45.7 µM and 162 µM. For the same compound, the GI50 in the assay on MALME-3M melanoma was 27.5 µM and 25.7 µM; in the assay with BT-549 breast, 33 µM. For the same compound, the TGI with UO-31 renal is over 300 µM; with M14 melanoma, > 60.1 µM and 50.2 µM; with MDA-MB-435, over 300 µM; in the assay on U251 CNS, over 300 µM; in the assay on TK-10 renal, over 300 µM; with MALME-3M melanoma it was over 300 µM. Moreover, the TGI in the assay on BT-549 breast was over 300 µM; in the assay on NCI-H522 lung it was over 91.8 µM; in the assay with UACC-257 melanoma it was over 86.5 µM.

On to `CN1CCC(C(=O)Nc2n[nH]c3nc(-c4ccc(O)cc4)c(Br)cc23)CC1`, for which the GI50 in the assay on CCRF-CEM leukemia was 0.835 µM and 0.996 µM; in the assay on UO-31 renal it was 6.85 µM and 7.86 µM; in the assay with M14 melanoma it was 3.47 µM and 4.68 µM; in the assay on MDA-MB-435, 1.57 µM and 1.45 µM; with U251 CNS, 0.661 µM and 0.848 µM; in the assay with TK-10 renal, 3.16 µM and 6.15 µM. Moreover, the GI50 in the assay with MALME-3M melanoma is 3.56 µM and 4.97 µM; in the assay on BT-549 breast, 1.6 µM and 2.31 µM; in the assay on NCI-H522 lung, 0.599 µM and 0.603 µM; with UACC-257 melanoma it was 4.3 µM and 6.17 µM. Moreover, the TGI with CCRF-CEM leukemia is over 25 µM; with UO-31 renal it was over 22.4 µM; with M14 melanoma, 8.42 µM and 9.62 µM; in the assay on MDA-MB-435 it was 5.58 µM and 5.61 µM; in the assay with U251 CNS it was over 25 µM; in the assay with TK-10 renal, 15.3 µM and 17.1 µM. For the same compound, the TGI in the assay with MALME-3M melanoma was 11.1 µM and 11.7 µM; in the assay with BT-549 breast, 16.4 µM and 16.9 µM; in the assay on NCI-H522 lung it was 1.52 µM and 1.62 µM; in the assay with UACC-257 melanoma it was 12.3 µM and 14.6 µM.

In the case of `Nc1nc2ccc3[nH]ncc3c2c2c1CCCC2`, the GI50 was 2.7 µM with CCRF-CEM leukemia; 2.13 µM in the assay on UO-31 renal; 1.53 µM in the assay with M14 melanoma; 1.52 µM in the assay with MDA-MB-435; 2.7 µM in the assay on U251 CNS; 2 µM with TK-10 renal. The GI50 with MALME-3M melanoma was 2.36 µM; in the assay on BT-549 breast it was 1.38 µM; in the assay with NCI-H522 lung, 2.17 µM; in the assay with UACC-257 melanoma, 3.28 µM. In addition, the TGI with CCRF-CEM leukemia came out at 12.5 µM; with UO-31 renal, 10.5 µM; with M14 melanoma, 3.23 µM; with MDA-MB-435, 3.36 µM; in the assay on U251 CNS it was 13.4 µM; in the assay on TK-10 renal, 14.5 µM. Besides, the TGI in the assay on MALME-3M melanoma worked out at 5.13 µM; in the assay with BT-549 breast it was 3.34 µM; in the assay with NCI-H522 lung, 5.88 µM; in the assay on UACC-257 melanoma, 11.6 µM.

As to `COc1ccc2c(c1)c1nc3cc(C)c(C)cc3nc1n2CCN(C)C`, the GI50 in the assay on CCRF-CEM leukemia is 0.797 µM; in the assay with UO-31 renal, 0.541 µM; with M14 melanoma it was 1.1 µM; in the assay with MDA-MB-435, 1.09 µM; with U251 CNS, 0.57 µM; in the assay on TK-10 renal it was 1.84 µM. The GI50 with MALME-3M melanoma was 1.11 µM; in the assay on BT-549 breast, 1.7 µM; with NCI-H522 lung, 0.582 µM; in the assay on UACC-257 melanoma it was 1.26 µM. The TGI in the assay with CCRF-CEM leukemia was determined as 3.67 µM; in the assay on UO-31 renal, 2.1 µM; in the assay on M14 melanoma it was 2.57 µM; in the assay with MDA-MB-435, 2.51 µM; in the assay on U251 CNS, 2.19 µM; in the assay with TK-10 renal it was 3.58 µM. Moreover, the TGI worked out at 2.53 µM in the assay on MALME-3M melanoma, 3.49 µM with BT-549 breast, 2.8 µM in the assay with NCI-H522 lung and 3.17 µM in the assay with UACC-257 melanoma.
